Test results: patent EP2664619B1, “Purine derivatives as tools for screening anti-Alzheimer compounds” (Manros Therapeutics, priority 2012, dated 2013)

How the values were obtained:
Aβ42 production = experiment: Sandwich ELISA measurement of Aβ42 levels in supernatant of treated N2a-APP695 cells; assay type: cell-based, Mouse
Experimental: (§1) Mouse neuroblastoma cells (N2a cells) or N2a-APP695 cells (N2a cell line stably transfected with APP695, an amyloid precursor protein) were cultured in an essential medium composed of Dulbecco's minimal essential medium (DMEM) and of OptiMEM® (1:1, v/v) (Gibco®) containing 0.2 mg/mL Geniticin (Geneticin® Selective Antibiotic, Gibco®) and 5 % fetal bovine serum (FBS, Gibco®, EU approved origin) in a humidified, 5% CO2 incubator at 37°C. Routinely, cells were split without use of Trypsin every 4/5 days. They were first rinsed with PBS (Gibco) and detached from the plate bottom using 4 mL Versene (Gibco) at room temperature for 3-4 min. 8 mL of fresh medium were added to the cell suspension, and the mix was centrifuged for 3 min at 1,000 rpm. The cell pellet was resuspended in fresh medium before seeding (1/10 dilution) in new flasks.
The N2a-APP695 cells were seeded at 10.000 cells/well in a 96 well plate with modified media (0.5% FBS) and incubated overnight. Cells were treated with fresh media comprising different compounds according to the invention (equal quantity of DMSO sold by Sigma®). They were then incubated for 18h in a humidified, 5% CO2 incubator.
Purines according to the invention were added at various concentrations to N2a-APP695.
The plate was finally centrifuged to remove cell fragments before collecting supernatant samples for amyloids levels determination.
(§2) Then, Aβ38, Aβ40 and Aβ42 levels were measured in a sandwich ELISA (Enzyme-Linked ImmunoSorbent Assay) using a combination of monoclonal antibody 6E10 (mAb 6E10) (sold by Covance® under the reference SIG-39320) and biotinylated polyclonal Aβ38, Aβ40 or Aβ42 antibodies (provided by Dr. P.D. Mehta, IBR, Staten Island, USA).
A solution of 100 µl mAb 6E10 diluted in carbonate-bicarbonate buffer, pH 9.6, was coated in the wells of microtiter plates (Maxisorp™ sold by Nunc®) and incubated at 4°C overnight. The plates were then washed with PBST (PBS tablets sold by Gibco®) containing 0.05% Tween-20 (Sigma®), and blocked for 1 h with 1% BSA (Sigma®) in PBST (PBS tablets sold by Gibco®) containing 0.05 Tween-20 (Sigma®) to avoid nonspecific binding.
Following a washing step, samples were added and incubated for 2 hours at room temperature (RT) and then at 4°C overnight. Plates were then washed before incubation with biotinylated polyclonal antibody diluted in PBST (PBS tablets sold by Gibco®) containing 0.05 Tween-20 (Sigma®) + 0.5% BSA at room temperature for 75 minutes.
After a washing step, streptavidin-horseradish peroxidase conjugate (Streptavidin poly-HRP, Thermo Scientific Pierce®), diluted in PBS + 1% BSA, was added and incubation was carried out for 45 min at room temperature. After washing, 100 µl of o-phenylenediamine dihydrochloride (OPD tablets, Invitrogen®) diluted in citrate buffer pH 5.0 were added. The reaction was stopped after 15 min with the addition of 100 µl 1 N sulfuric acid.
A range of known concentrations of Aβ38, Aβ40 and Aβ42, ranging from 0.01 to 10 ng/mL for Aβ38 and Aβ42, and ranging from 0.001 to 10 ng/mL for Aβ40, were use as a reference scale to determine the concentrations of Aβ38, Aβ40 and Aβ42 obtained.
(§3) The optical density was finally measured at 490 nm in a microELISA reader (sold by BioTek Instrument, reference E1 800, Gen 5 software).
The EC50 of the molecules tested were thus calculated.

Aβ42 = experiment: Effect of γ-secretase inhibitors/modulator on Aftin-induced production of Aβ42; assay type: cell-based; settings: for IC50: γ-secretase inhibitor, Aftin-induced production
From the text: (§4) To investigate the importance of γ-secretases in the effects of Aftins according to the invention, two potent pharmacological inhibitors of γ-secretases, DAPT (N-[(3,5-Difluorophenyl)acetyl]-L-alanyl-2-phenyl]glycine-1,1-dimethylethyl ester) and BMS 299897 were used.

Aβ38 [1] = experiment: Sandwich ELISA measurement of Aβ38 levels in supernatant of treated N2a-APP695 cells; assay type: cell-based, Mouse
Experimental: as §1, with “8 mL of fresh medium were added to the cell suspension, and the mix was centrifuged for 3 min at 1,000 rpm. The cell pellet was resuspended in fresh medium before seeding (1/10 dilution) in new flasks.” left out
(§5) The N2a-APP695 cells were seeded at 10.000 cells/well in a 96 well plate with modified media (0.5% FBS) and incubated overnight. Cells were treated with fresh media comprising different compounds according to the invention (equal quantity of DMSO sold by Sigma®). […]
as §2, with “USA). […]” for “USA).”
as §3

Aβ40 [2] = experiment: Sandwich ELISA measurement of Aβ40 levels in supernatant of treated N2a-APP695 cells; assay type: cell-based, Mouse
Experimental: as §1, with “8 mL of fresh medium were added to the cell suspension, and the mix was centrifuged for 3 min at 1,000 rpm. The cell pellet was resuspended in fresh medium before seeding (1/10 dilution) in new flasks.” left out
as §5
as §2, with “USA). […]” for “USA).”
as §3

Aβ38 [3] = experiment: Effect of γ-secretase inhibitors/modulator on Aβ38 level in Aftin-treated cells; assay type: cell-based; settings: for IC50: γ-secretase inhibitor, Aftin-treated cells
From the text: as §4

N2a-APP695 cells = experiment: MTS cell viability assay in the same wells as the ELISA
Experimental: To measure cell viability, the MTS assay (CellTiter 96® AQueous One Solution Cell Proliferation Assay, Promega) was used in the same wells as the capture ELISA assay. 20µl of MTS reagent (3-(4,5-dimethylthiazol-2-yl)-5-(3-carboxymethoxyphenyl)-2-(4-sulfophenyl)-2H-tetrazolium) was added in each well containing 100µl of media and incubation was then proceeded for 3 hours (37°C, 5% CO2 and 95% humidity). Measurements were made on OD 490Δ630 nm (excitation and emission wavelengths) using a microELISA reader (BioTek Instrument, El 800, Gen 5 software).

Aβ40 [4] = experiment: Effect of γ-secretase inhibitors on Aβ40 level in Aftin-treated cells; assay type: cell-based; settings: γ-secretase inhibitor
From the text: as §4

γ-secretases = settings: read-out: reported IC50 values on γ-secretases; cited from earlier work
[5] = N2a-APP695 cells, 18 hours, dose-dependent, Figure 3
[6] = N2a-APP695 cells, 1 µM added simultaneously with increasing concentrations of Aftin-5

Compound: CCN(CC)c1ccc(C)c(Nc2nc(-c3ccc(-n4cnc(C)c4)cc3)cs2)c1 ['Torrey Pines' compound, reference compound]
- Aβ42 production (Aβ42 production; [5]): down-regulates
- Aβ42 regulation (Aβ42; [6]): down-regulation
- effect on Aftin-5 induced Aβ42 up-regulation and Aβ38 down-regulation (Aβ42; N2a-APP695 cells, added 1 h prior to 100 µM Aftin-5, dose dependent, Figure 4): inhibition of Aftin-5 effect
- Aβ38 level (Aβ38 [1]; [5]): up-regulation
- Aβ40 production (Aβ40 [2]; [5]): down-regulates
- Aβ38 regulation (Aβ38 [3]; [6]): up-regulation

Compound: CC[C@H](CO)Nc1nc(N(C)c2ccccc2)c2ncn(C(C)C)c2n1 [Aftin-5, (2R)-2-[[9-isopropyl-6-(N-methylanilino)purin-2-yl]amino]butan-1-ol]
- EC50 (Aβ42 production; Mus musculus, N2a-APP695 cells, 18h incubation, ELISA assay, read-out: EC50 (µM) at inducing Aβ42 production): 10.6 µM
- increase of the levels of Aβ42 production (Aβ42 production; dose-response curves, Figure 1, 18 hours, up to): > 900%
- levels of Aβ38, decrease (Aβ38 [1]; dose-response, in parallel to the increase of Aβ42): > 70%
- Toxicity (N2a-APP695 cells; MTS assay, N2a-APP695 cells, class symbol): - ("-" means that the tested compound is non toxic with a concentration higher than 100 µM)
- cytotoxic effects on cells (N2a-APP695 cells; highest concentration tested (150 µM) or longest exposure (5 days)): did not show any cytotoxic effects
- levels of Aβ40, maximum increase (Aβ40 [2]; dose-response curves, Figure 1, 18 hours): ≤ 40%

Compound: C[C@H](c1ccc(F)cc1CCCC(=O)O)N(c1cc(F)ccc1F)S(=O)(=O)c1ccc(Cl)cc1 [BMS 299897]
- IC50 (Aβ42): 28.8 nM
- IC50 (Aβ40 [4]): 55.9 nM
- IC50 (Aβ38 [3]): 88 nM
- IC50 (γ-secretases): 8 to 300 nM

Compound: C[C@H](NC(=O)Cc1cc(F)cc(F)c1)C(=O)N[C@H](C(=O)OC(C)(C)C)c1ccccc1 [DAPT]
- IC50 (Aβ42): 42.5 nM
- IC50 (Aβ40 [4]): 61.8 nM
- IC50 (Aβ38 [3]): 112 nM
- IC50 (γ-secretases): 25 to 56 nM
